Results from patent US20240299566A1, “POLY-ARGININE DERIVATIVES FOR ENHANCING BRAIN-DERIVED GROWTH FACTOR TO MITIGATE NEUROLOGICAL DISORDERS” (priority 2021, published 2024).
“Also recorded” adds a separate entry of the source.

Columns and labels:
[1] = tested on: IL-1β; experiment: Inflammatory cytokine expression in CORT behavioral model of depression; assay type: in vivo, mice; conditions: acute injection, FIG. 4A
Excerpt: A major breakthrough in our understanding of the mechanistic basis for depression is the “inflammatory hypothesis”.

[2] = tested on: SH-SY5Y cells transfected with HA-TrkB; experiment: BDNF-stimulated TrkB signaling, western blot with phospho-specific antibodies; assay type: cell-based; conditions: 1 μM, FIG. 1D
Experimental: FIG. 1A depicts western blots probed with phospho-specific antibodies against p-MTOR, p-Erk and p-S6 from SHSY5Y cells transfected with TrkB and stimulated with 30 ng/ml BDNF. Blots depict expression before (0′), or 15 or 60 minutes (15′ and 60′) after BDNF stimulation.
SH-SY5Y cells were transfected with HA-TrkB. Following transfection, cells were starved in MEM for 3 hours. In the last 90 minutes of starvation, cells were treated with compounds of Formula (IV) or CN-2097 (shown below) at 1 μM and 5 μM. In the last hour of starvation, cells were stimulated with BDNF. Western blots probed with phospho-specific antibodies against p-MTOR, p-Erk and p-S6 (FIG. 1A).

[3] = tested on: repeated corticosterone-injected mice; experiment: Tail Suspension Test in repeated corticosterone-injected mice; assay type: in vivo; conditions: single i.v. injection 1 mg/kg, day 7 after injection
Excerpt: FIG. 3B is a scatter plot showing immobility time of control mice or depressed mice during a Tail Suspension Test, 7 days after injection of vehicle or Compounds of Formula (IV), *P<0.001 vs. control mice.
(§1) Preclinical identification of fast-onset antidepressants requires animal models that can accurately predict the delay to therapeutic onset. […] This has led to the approval of SPRAVATO® (esketamine), a ketamine-derived drug which is the first antidepressant with a novel mechanism of action approved in decades. The neurobiological changes believed to underlie depressive symptomatology have been reliably characterized using exogenous corticosterone (CORT) administration e.g. dendritic atrophy in hippocampal pyramidal cells with loss of CA3 and CA1 apical dendrites. […] Mice then received a single injection of compounds of Formula (IV) (1 mg/kg) or Vehicle (0.9% NaCl). Day 7 after injection of compounds of Formula (IV), immobility times in the FST and TST were tested as described. #P<0.001 vs. control mice.

[4] = tested on: Angelman syndrome (AS) mice; experiment: Hippocampal LTP (field EPSP slopes, CA1) in Angelman syndrome mice after IP injection; assay type: in vivo; conditions: for LTP (field EPSP slopes, CA1 region of hippocampus): IP, AS mice
Experimental: Field EPSP slopes were recorded in the CA1 region of the hippocampus.
Electrophysiological recordings and data analysis were performed as described in Cao et al., 2013 (Impairment of TrkB-PSD-95 Signaling in Angelman Syndrome. PLoS Biol 11, e1001478 (2013). Coronal brain slices (350 μm) were maintained in an interface chamber containing oxygenated artificial cerebral spinal fluid (ACSF) for at least 1 h before use. Slices were transferred to a submersion recording chamber perfused with oxygenated ACSF at 2 ml/min. Extracellular postsynaptic field potentials (fEPSPs) were performed by placing electrodes (borosilicate glass, resistance <1 MΩ) in the CA1 stratum radiatum and synaptic responses elicited by stimulation of the Schaffer Collaterals using concentric bipolar stimulation electrodes and recorded using an AxoClamp2B amplifier (Axon instruments) and EX1 differential amplifier (Dagan), and digitized at 10 kHz. Data were acquired using Igor Pro (Wave Metrics) and Neuromatic (neuromatic.thinkrandom.com). LTP was induced by high frequency stimulation (2×HFS for is at 100 Hz separated by 20 s) of Schaffer collateral afferents and LTP values are expressed as percentage of baseline±SEM. Paired two-tailed t-tests were used for statistical analysis.

[5] = tested on: microglia; experiment: Microglia morphology in CORT mouse model of depression; assay type: in vivo, mice; conditions: acute injection, FIG. 4C
Excerpt: Microglial cells are capable of influencing complex moods, synaptic plasticity, neurogenesis, and memory. […] Classically activated, pro-inflammatory microglia phenotypes (termed M1-like), often release inflammatory mediators that result in severely injured tissue. Alternatively activated, anti-inflammatory microglial phenotypes (termed M2-like) are neuroprotective in function and promote the survival of new neurons. In a healthy brain, most microglial cells are in a resting state. The morphology of resting microglia is poly-branched with many fine branches and a smaller cytoplasm, compared to active microglia that display an increased soma size and more irregular shape of their cell body. Activation of microglia results in the release of pro-inflammatory factors, namely IL-1β, TNFα and IL-6.

[6] = tested on: repeated corticosterone-injected mice; experiment: Forced Swim Test in repeated corticosterone-injected mice; assay type: in vivo; conditions: single i.v. injection 1 mg/kg, day 7 after injection
Excerpt: FIG. 3A is a scatter plot showing immobility time of control mice or depressed mice during a Forced Swim Test, 7 days after injection of vehicle or Compounds of Formula (IV), where *P<0.001 vs. control mice.
as §1

[7] = tested on: ischemic episode; experiment: Proposed treatment of patient with ischemia; assay type: in vivo, human; conditions: 50 mg/Kg i.v. within 2 hours of onset; outcome within 48 hours
Experimental: A person presents with an ischemic episode resulting sudden numbness the face, and left arm, confusion, and trouble speaking. […] Doses of from about 1 to about 100 mg/Kg will be used.

CC(C)C(NC(=O)C1CCC(=O)NCCC(=O)NCCCCC(NC(=O)C(CCC(N)=O)NC(=O)C(NC(=O)C(Cc2c[nH]c3ccccc23)NC(=O)C2CCCN2C(=O)C2CCCN2C(=O)C(Cc2ccccc2)NC(=O)C(CO)NC(=O)CNC(=O)C(N)CSSCC(N)C(=O)NC(CCCNC(=N)N)C(=O)NC(CCCNC(=N)N)C(=O)NC(CCCNC(=N)N)C(=O)NC(CCCNC(=N)N)C(=O)NC(CCCNC(=N)N)C(=O)NC(CCCNC(=N)N)C(=O)NC(CCCNC(=N)N)C(N)=O)C(C)C)C(=O)NC(C(C)O)C(=O)N1)C(=O)O (centres unmarked) [Formula (IV)]
IL-1β expression [1]: blocks the increased expression of IL-1β
p-S6 activity ([2]; BDNF stimulation): enhanced p-S6 activity
dose enhancing p-S6 activity, fold lower compared to CN2097 [2]: 5 fold
immobility time in Tail Suspension Test [3]: reduced the duration of immobility time
restoration of hippocampal LTP, dose compared to CN2097 ([4]; Angelman mouse model, FIG. 2A-2C): restored hippocampal LTP in an Angelman mouse model at a significantly lower dose as compared to CN2097
LTP (field EPSP slopes, CA1 region of hippocampus) ([4]; 0.5 mg/kg): resulted in LTP; also recorded: LTP was observed
LTP (field EPSP slopes, CA1 region of hippocampus) ([4]; 1 mg/kg): LTP was observed
LTP (field EPSP slopes, CA1 region of hippocampus) ([4]; 2 mg/kg): LTP was observed
microglia phenotype [5]: switches microglia from an active form (CORT depression) to the resting phenotype
immobility time in Forced Swim Test [6]: reduced the duration of immobility time
patient outcome after ischemic episode [7]: recovers without significant brain damage
